A short description of series [1]: Local injection into rat leg muscles under CT guidance, CT marking over time. It is filed as in vivo. The following applies: rat leg muscle, iodine content increased by 25 times. On the procedure: In order to verify whether the super-strong CT imaging effect of PIDA is practically applicable, the PIDA dispersion and iohexol with the same iodine content were injected locally into leg muscles of a rat respectively under CT guidance in the present invention. For effective CT marking, the CT signal intensity thereof should be 2 times or more that of background tissues. A background CT signal of rat muscle tissues is about 50 HU, so the CT marking signal intensity exceeding 100 HU can be regarded as effective CT marking. […] To further verify the high efficiency and location stability of PIDA CT imaging, in the present invention, iohexol with the iodine content being increased by 25 times was injected into a corresponding leg muscle site of a rat.

The subject of the next series is rat erythrocytes. Kind of series: Hemolysis test with rat erythrocytes. In kind it is cell-based. Particulars: PIDA dispersions of different concentrations; Triton = 100% hemolysis control. On the procedure: When a material is applied in the biomedical field, in addition to the special imaging/treatment effect of the material, the biocompatibility of the material itself is the topic that people are most concerned about. At the cell level, PIDA dispersions of different concentrations were mixed with rat erythrocytes in the present invention. […] In addition, in the present invention, PIDA dispersions of different concentrations were respectively incubated together with 4Tl cells (mouse breast cancer cells), NIH 3T3 cells (mouse embryonic fibroblasts) and HEK 293T (human embryonic kidney cells) for 12 hours, and cell viability was verified by means of MTT verification.

With `CC(=O)N(CC(O)CO)c1c(I)c(C(=O)NCC(O)CO)c(I)c(C(=O)NCC(O)CO)c1I` (centres unmarked) [iohexol], in series [1], the “time until CT enhancement completely disappeared” value was no more than 6 h.
Triton: in the series with rat erythrocytes, the hemolysis rate result is given as “complete hemolysis”.

The values above are taken from patent publication US20250051510A1, “CARBON-IODINE CONJUGATED POLYMER AND PREPARATION THEREOF, AND USE THEREOF FOR PREPARING LOCALIZATION MARKER” (Huazhong University of Science and Technology, priority 2021, published 2025).
